According to patent publication US10167262B2, “Herbicidal substituted 3-arylpyrazoles” (FMC CORPORATION, priority 2014, dated 2019):

Assays:
Type in all cases: in vivo
rice (Oryza sativa) = assay: Test B flooded paddy test, plant response rating 0-100; settings: Flood, 250 g ai/ha; scale 0 to 100 (0 no effect, 100 complete control); 13 to 15 days
In short: (§1)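 Visual injury ratings against untreated controls, taken 13 to 15 days after compound was added to paddy water standing 3 cm above the soil.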

[1] = tested on: ducksalad (Heteranthera limosa); assay: as above; settings: Flood, 250 g ai/ha; scale 0 to 100 (0 no effect, 100 complete control); 13 to 15 days
In short: as §1

[2] = tested on: sedge, umbrella (small-flower umbrella sedge, Cyperus difformis); assay: as above; settings: Flood, 250 g ai/ha; scale 0 to 100 (0 no effect, 100 complete control); 13 to 15 days
In short: as §1

[3] = tested on: barnyardgrass (Echinochloa crus-galli); assay: as above; settings: Flood, 250 g ai/ha; scale 0 to 100 (0 no effect, 100 complete control); 13 to 15 days
In short: as §1

[4] = tested on: pigweed (Amaranthus retroflexus); assay: Test A pre-/postemergence greenhouse herbicide test, visual injury rating 0-100
In short: (§2)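 Formulated in non-phytotoxic solvent with surfactant, compounds were applied pre- and postemergence simultaneously. Soil: loam–sand blend. Visual injury, 0 = no effect to 100 = complete control, ~10 days.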

[5] = tested on: giant foxtail (Setaria faberii); assay: as above
In short: as §2

corn (Zea mays) = assay: as above
In short: as §2

[6] = tested on: morningglory (Ipomoea spp.); assay: as above
In short: as §2

[7] = tested on: large (Lg) crabgrass (Digitaria sanguinalis); assay: as above
In short: as §2

[8] = tested on: barnyardgrass (Echinochloa crus-galli); assay: as above
In short: as §2

[9] = tested on: velvetleaf (Abutilon theophrasti); assay: as above
In short: as §2

[10] = tested on: wheat (Triticum aestivum); assay: as above
In short: as §2

Row | Structure (SMILES) | Plant response rating, Rice (rice (Oryza sativa)) | Plant response rating, Ducksalad [1] | Plant response rating, Sedge, Umbrella [2] | Plant response rating, Barnyardgrass [3] | Plant response rating (0 to 100 scale), Pigweed ([4]; Postemergence, 125 g ai/ha) | Plant response rating (0 to 100 scale), Pigweed ([4]; Postemergence, 500 g ai/ha) | Pigweed plant response rating (0 = no effect, 100 = complete control) ([4]; Preemergence, 125 g ai/ha) | Plant response rating (0 to 100 scale), Pigweed ([4]; Preemergence, 500 g ai/ha) | Plant response rating (0 to 100 scale), Foxtail, Giant ([5]; Postemergence, 125 g ai/ha) | Plant response rating (0 to 100 scale), Foxtail, Giant ([5]; Postemergence, 500 g ai/ha) | Foxtail, Giant plant response rating (0 = no effect, 100 = complete control) ([5]; Preemergence, 125 g ai/ha) | Plant response rating (0 to 100 scale), Foxtail, Giant ([5]; Preemergence, 500 g ai/ha) | Plant response rating (0 to 100 scale), Corn (corn (Zea mays); Postemergence, 125 g ai/ha) | Plant response rating (0 to 100 scale), Corn (corn (Zea mays); Postemergence, 500 g ai/ha) | Corn plant response rating (0 = no effect, 100 = complete control) (corn (Zea mays); Preemergence, 125 g ai/ha) | Plant response rating (0 to 100 scale), Corn (corn (Zea mays); Preemergence, 500 g ai/ha) | Plant response rating (0 to 100 scale), Morningglory ([6]; Postemergence, 125 g ai/ha) | Plant response rating (0 to 100 scale), Morningglory ([6]; Postemergence, 500 g ai/ha) | Morningglory plant response rating (0 = no effect, 100 = complete control) ([6]; Preemergence, 125 g ai/ha) | Plant response rating (0 to 100 scale), Morningglory ([6]; Preemergence, 500 g ai/ha) | other results
1 | CCn1cc(C(=O)c2ccccc2)c(-c2cc(F)cc(Br)c2)n1 [Compound 10] | 0 | 0 | 0 | 0 | – | – | – | – | – | – | – | – | – | – | – | – | – | – | – | – | Plant response rating (0 to 100 scale), Pigweed ([4]; Postemergence, 1000 g ai/ha): 90; Plant response rating (0 to 100 scale), Pigweed ([4]; Preemergence, 1000 g ai/ha): 100; Plant response rating (0 to 100 scale), Foxtail, Giant ([5]; Postemergence, 1000 g ai/ha): 0; Plant response rating (0 to 100 scale), Foxtail, Giant ([5]; Preemergence, 1000 g ai/ha): 0; Plant response rating (0 to 100 scale), Corn (corn (Zea mays); Postemergence, 1000 g ai/ha): 0; Plant response rating (0 to 100 scale), Corn (corn (Zea mays); Preemergence, 1000 g ai/ha): 0; Plant response rating (0 to 100 scale), Morningglory ([6]; Postemergence, 1000 g ai/ha): 0; Plant response rating (0 to 100 scale), Morningglory ([6]; Preemergence, 1000 g ai/ha): 0; Plant response rating (0 to 100 scale), Crabgrass, Large ([7]; Postemergence, 1000 g ai/ha): 0; Plant response rating (0 to 100 scale), Crabgrass, Large ([7]; Preemergence, 1000 g ai/ha): 0; Plant response rating (0 to 100 scale), Barnyardgrass ([8]; Postemergence, 1000 g ai/ha): 0; Plant response rating (0 to 100 scale), Barnyardgrass ([8]; Preemergence, 1000 g ai/ha): 0; Plant response rating (0 to 100 scale), Velvetleaf ([9]; Postemergence, 1000 g ai/ha): 90; Plant response rating (0 to 100 scale), Velvetleaf ([9]; Preemergence, 1000 g ai/ha): 90; Plant response rating (0 to 100 scale), Wheat ([10]; Postemergence, 1000 g ai/ha): 0; Plant response rating (0 to 100 scale), Wheat ([10]; Preemergence, 1000 g ai/ha): 0
2 | O=C(c1cncc(F)c1)c1c[nH]nc1-c1cc(F)cc(Cl)c1 [Compound 22] | 0 | 0 | 0 | 0 | 70 | 100 | 60 | 100 | 0 | 0 | 0 | 0 | 0 | 0 | 0 | 0 | 0 | 0 | 0 | 0 | Plant response rating (0 to 100 scale), Crabgrass, Large ([7]; Postemergence, 125 g ai/ha): 0; Plant response rating (0 to 100 scale), Crabgrass, Large ([7]; Postemergence, 500 g ai/ha): 0; Crabgrass, Large plant response rating (0 = no effect, 100 = complete control) ([7]; Preemergence, 125 g ai/ha): 0; Plant response rating (0 to 100 scale), Crabgrass, Large ([7]; Preemergence, 500 g ai/ha): 0; Plant response rating (0 to 100 scale), Barnyardgrass ([8]; Postemergence, 125 g ai/ha): 0; Plant response rating (0 to 100 scale), Barnyardgrass ([8]; Postemergence, 500 g ai/ha): 0; Barnyardgrass plant response rating (0 = no effect, 100 = complete control) ([8]; Preemergence, 125 g ai/ha): 0; Plant response rating (0 to 100 scale), Barnyardgrass ([8]; Preemergence, 500 g ai/ha): 0; Plant response rating (0 to 100 scale), Velvetleaf ([9]; Postemergence, 125 g ai/ha): 60; Plant response rating (0 to 100 scale), Velvetleaf ([9]; Postemergence, 500 g ai/ha): 80; Velvetleaf plant response rating (0 = no effect, 100 = complete control) ([9]; Preemergence, 125 g ai/ha): 30; Plant response rating (0 to 100 scale), Velvetleaf ([9]; Preemergence, 500 g ai/ha): 60; Plant response rating (0 to 100 scale), Wheat ([10]; Postemergence, 125 g ai/ha): 0; Plant response rating (0 to 100 scale), Wheat ([10]; Postemergence, 500 g ai/ha): 0; Wheat plant response rating (0 = no effect, 100 = complete control) ([10]; Preemergence, 125 g ai/ha): 0; Plant response rating (0 to 100 scale), Wheat ([10]; Preemergence, 500 g ai/ha): 0
3 | O=C(c1cncc(F)c1)c1c[nH]nc1-c1cc(F)cc(F)c1 [Compound 23] | 0 | 0 | 0 | 0 | 50 | 60 | 70 | 100 | 0 | 0 | 0 | 0 | 0 | 0 | 0 | 0 | 0 | 0 | 0 | 0 | Plant response rating (0 to 100 scale), Crabgrass, Large ([7]; Postemergence, 125 g ai/ha): 0; Plant response rating (0 to 100 scale), Crabgrass, Large ([7]; Postemergence, 500 g ai/ha): 0; Plant response rating (0 to 100 scale), Crabgrass, Large ([7]; Preemergence, 500 g ai/ha): 0; Plant response rating (0 to 100 scale), Barnyardgrass ([8]; Postemergence, 125 g ai/ha): 0; Plant response rating (0 to 100 scale), Barnyardgrass ([8]; Postemergence, 500 g ai/ha): 0; Barnyardgrass plant response rating (0 = no effect, 100 = complete control) ([8]; Preemergence, 125 g ai/ha): 0; Plant response rating (0 to 100 scale), Barnyardgrass ([8]; Preemergence, 500 g ai/ha): 0; Plant response rating (0 to 100 scale), Velvetleaf ([9]; Postemergence, 125 g ai/ha): 0; Plant response rating (0 to 100 scale), Velvetleaf ([9]; Postemergence, 500 g ai/ha): 40; Velvetleaf plant response rating (0 = no effect, 100 = complete control) ([9]; Preemergence, 125 g ai/ha): 60; Plant response rating (0 to 100 scale), Velvetleaf ([9]; Preemergence, 500 g ai/ha): 90; Plant response rating (0 to 100 scale), Wheat ([10]; Postemergence, 125 g ai/ha): 0; Plant response rating (0 to 100 scale), Wheat ([10]; Postemergence, 500 g ai/ha): 0; Wheat plant response rating (0 = no effect, 100 = complete control) ([10]; Preemergence, 125 g ai/ha): 0; Plant response rating (0 to 100 scale), Wheat ([10]; Preemergence, 500 g ai/ha): 0
4 | CCn1cc(C(=O)c2cccs2)c(-c2cc(F)cc(Cl)c2)n1 [Compound 24] | 0 | 0 | 0 | 0 | 80 | 100 | 60 | 80 | 0 | 10 | 0 | 0 | 0 | 0 | 0 | 0 | 0 | 10 | 0 | 0 | Plant response rating (0 to 100 scale), Crabgrass, Large ([7]; Postemergence, 125 g ai/ha): 10; Plant response rating (0 to 100 scale), Crabgrass, Large ([7]; Postemergence, 500 g ai/ha): 20; Crabgrass, Large plant response rating (0 = no effect, 100 = complete control) ([7]; Preemergence, 125 g ai/ha): 0; Plant response rating (0 to 100 scale), Crabgrass, Large ([7]; Preemergence, 500 g ai/ha): 20; Plant response rating (0 to 100 scale), Barnyardgrass ([8]; Postemergence, 125 g ai/ha): 0; Plant response rating (0 to 100 scale), Barnyardgrass ([8]; Postemergence, 500 g ai/ha): 10; Barnyardgrass plant response rating (0 = no effect, 100 = complete control) ([8]; Preemergence, 125 g ai/ha): 0; Plant response rating (0 to 100 scale), Barnyardgrass ([8]; Preemergence, 500 g ai/ha): 0; Plant response rating (0 to 100 scale), Velvetleaf ([9]; Postemergence, 125 g ai/ha): 40; Plant response rating (0 to 100 scale), Velvetleaf ([9]; Postemergence, 500 g ai/ha): 90; Velvetleaf plant response rating (0 = no effect, 100 = complete control) ([9]; Preemergence, 125 g ai/ha): 0; Plant response rating (0 to 100 scale), Velvetleaf ([9]; Preemergence, 500 g ai/ha): 0; Plant response rating (0 to 100 scale), Wheat ([10]; Postemergence, 125 g ai/ha): 0; Plant response rating (0 to 100 scale), Wheat ([10]; Postemergence, 500 g ai/ha): 0; Wheat plant response rating (0 = no effect, 100 = complete control) ([10]; Preemergence, 125 g ai/ha): 0; Plant response rating (0 to 100 scale), Wheat ([10]; Preemergence, 500 g ai/ha): 0
5 | O=C(c1ccccc1)c1cn(C(=O)C2CC2)nc1-c1cc(Cl)cc(Cl)c1 [Compound 26] | 0 | 0 | 0 | 0 | 40 | 80 | 0 | 0 | 0 | 0 | 0 | 0 | 0 | 0 | 0 | 0 | 0 | 0 | 0 | 0 | Plant response rating (0 to 100 scale), Crabgrass, Large ([7]; Postemergence, 125 g ai/ha): 0; Plant response rating (0 to 100 scale), Crabgrass, Large ([7]; Postemergence, 500 g ai/ha): 0; Crabgrass, Large plant response rating (0 = no effect, 100 = complete control) ([7]; Preemergence, 125 g ai/ha): 0; Plant response rating (0 to 100 scale), Crabgrass, Large ([7]; Preemergence, 500 g ai/ha): 0; Plant response rating (0 to 100 scale), Barnyardgrass ([8]; Postemergence, 125 g ai/ha): 0; Plant response rating (0 to 100 scale), Barnyardgrass ([8]; Postemergence, 500 g ai/ha): 0; Barnyardgrass plant response rating (0 = no effect, 100 = complete control) ([8]; Preemergence, 125 g ai/ha): 0; Plant response rating (0 to 100 scale), Barnyardgrass ([8]; Preemergence, 500 g ai/ha): 0; Plant response rating (0 to 100 scale), Velvetleaf ([9]; Postemergence, 125 g ai/ha): 50; Plant response rating (0 to 100 scale), Velvetleaf ([9]; Postemergence, 500 g ai/ha): 80; Velvetleaf plant response rating (0 = no effect, 100 = complete control) ([9]; Preemergence, 125 g ai/ha): 0; Plant response rating (0 to 100 scale), Velvetleaf ([9]; Preemergence, 500 g ai/ha): 0; Plant response rating (0 to 100 scale), Wheat ([10]; Postemergence, 125 g ai/ha): 0; Plant response rating (0 to 100 scale), Wheat ([10]; Postemergence, 500 g ai/ha): 0; Wheat plant response rating (0 = no effect, 100 = complete control) ([10]; Preemergence, 125 g ai/ha): 0; Plant response rating (0 to 100 scale), Wheat ([10]; Preemergence, 500 g ai/ha): 0
